Key:
[1] = Zn(II) binding affinity of the chelator; cited from earlier work
[2] = Zn(II) binding constant (Log KZnL/[Zn][L]), literature values; format: physicochemical; settings: relative to N-hydroxyacetamide

Log KZnL/[Zn][L] fold higher than that of N-hydroxyacetamide [2]	SMILES	Log KZnL/[Zn][L] [1]
–	CC(=O)NO [N-hydroxyacetamide]	< 5
about 100 fold	Cc1c(O)c(=O)ccn1C [Deferiprone, 1,2-dimethyl-3-hydroxy-4-pyridinone]	7.19

From patent US6932960B2, “N-substituted 3-hydroxy-4-pyridinones and pharmaceuticals containing thereof” (Bristol-Myers Squibb Pharma Company, priority 2002, dated 2005)
